Experimental data published in US11464783B2, “Heterocyclic compounds” (Aligos Therapeutics, Inc., priority 2019, dated 2022).

What follows are molecules tested on HBV (assay: HBV-DNA Antiviral Assay Using HepG2.2.15 Cells). Conditions: Hepatitis B virus, HepG2.2.15, 168 h, extracellular HBV DNA by qPCR, day 7.
Assay type: cell-based
Experimental: The following assay procedure describes the HBV antiviral assay. This assay uses HepG2.2.15 cells, which have been transfected with HBV genome, and extracellular HBV DNA quantification as endpoint. Cell viability is assessed in parallel by measuring the intracellular ATP content using the CellTiter-Glo® reagent from Promega.
On day 0, HepG2.2.15 cells were seeded in 96-well plates at a density of 6.0×10^4 cells/well (0.1 mL/well). The cells were incubated at 37° C. and 5% CO2.
On day 1, the test articles were diluted and added to cell culture wells (8 concentrations, 4-fold dilution, in duplicate). GLS4, Tenofovir and Sorafenib were used as reference compounds. 100 μL of culture medium containing the compounds was added to the plate, and the final total volume per well was 200 μL. The final concentration of DMSO in the culture medium was 0.5%. The plate map of compound treatment is shown below. The cells were cultured at 37° C. and 5% CO2 for 3 days.
On day 4, the plates were refreshed with culture media with compounds.
On day 7, cell viability was assessed using the CellTiter-Glo®, and the cell culture supernatants were collected for determination of HBV DNA by qPCR.
Extracellular DNA was isolated with QIAamp 96 DNA Blood Kit per the manufacturer's manual. HBV DNA was then quantified by qPCR with HBV specific primers and probes as specified in Table 1 using the FastStart Universal MasterMix from Roche on an ABI-7900HT. The PCR cycle program consisted of 95° C. for 10 min, followed by 40 cycles at 95° C. for 15 sec and 60° C. for 1 min.
A DNA standard was prepared by dilution of the pAAV2 HBV1.3 plasmid with concentrations ranging from 10 to 1×10^7 copies/uL and used to generate a standard curve by plotting Ct value vs. the concentration of the HBV plasmid DNA standard. The quantity of HBV DNA in each sample was determined by interpolating from the standard curve.
Cell viability was calculated as follows: % Cell viability=(luminescence value of test sample−average luminescence value of blank)/(average luminescence value of 0.5% DMSO control−average luminescence of blank)×100%. HBV DNA inhibition was calculated as follows: 100-(HBV DNA copy number of test sample−HBV DNA copy number of ETV)/HBV DNA copy number of 0.5% DMSO control−HBV DNA copy number of ETV)×100%. The CC50, EC50 and EC90 values were determined by dose-response curves fitted by GraphPad Prism using “log (agonist) vs. response-Variable slope”.

How did the EC50 turn out when O=C(c1ccc(Br)c(Cl)c1)N1CCS(=O)(=O)C(c2cccs2)C1 (stereo not shown) [Compound 6a, (4-bromo-3-chloro-phenyl)-[1,1-dioxo-2-(2-thienyl)-1,4-thiazinan-4-yl]methanone] was run?
The EC50 was at most 100 nM.

For O=C(c1ccc(Cl)cc1F)N1CCS(=O)(=O)C(c2cccs2)C1 (stereo not shown) [Compound 10a, (4-chloro-2-fluoro-phenyl)-[1,1-dioxo-2-(2-thienyl)-1,4-thiazinan-4-yl]methanone], which EC50 is on record?
The EC50 was over 5000 nM.

O=C(c1ccc(Cl)cc1Cl)N1CCS(=O)(=O)C(c2cccs2)C1 (stereo not shown) [Compound 11a, (2,4-dichlorophenyl)-[1,1-dioxo-2-(2-thienyl)-1,4-thiazinan-4-yl]methanone] was tested. Which EC50 did it give?
The EC50 was 500 to 5000 nM.

How did the EC50 turn out when O=C(c1cccc(Cl)c1F)N1CCS(=O)(=O)C(c2cccs2)C1 (stereo not shown) [Compound 14a, (3-chloro-2-fluoro-phenyl)-[1,1-dioxo-2-(2-thienyl)-1,4-thiazinan-4-yl]methanone] was run?
The EC50 was over 5000 nM.

How did the EC50 turn out when C[C@@H]1CS(=O)(=O)[C@@H](c2cccs2)CN1C(=O)Nc1ccc(F)c(Cl)c1 [Compound 22, (2R,5R)-N-(3-chloro-4-fluoro-phenyl)-5-methyl-1,1-dioxo-2-(2-thienyl)-1,4-thiazinane-4-carboxamide] was run?
Its EC50 is over 5000 nM.

C[C@H]1CS(=O)(=O)[C@H](c2cccs2)CN1C(=O)c1ccc(Br)c(Cl)c1 [Compound 24, (4-bromo-3-chloro-phenyl)-[(2S,5S)-5-methyl-1,1-dioxo-2-(2-thienyl)-1,4-thiazinan-4-yl]methanone] was tested. Which EC50 did it give?
The EC50 was 100 to 500 nM.

Same assay, conditions: extracellular HBV DNA by qPCR, day 7

Which EC50 does the source give for O=C(c1ccc(Cl)c(Cl)c1)N1CCS(=O)(=O)C(c2cccs2)C1 (single isomer, unassigned) [Compound 8a, (3,4-dichlorophenyl)-[1,1-dioxo-2-(2-thienyl)-1,4-thiazinan-4-yl]methanone] here?
The EC50 was 500 to 5000 nM.

How did the EC50 turn out when O=C(c1ccc(Cl)c(Cl)c1)N1CCS(=O)(=O)C(c2cccs2)C1 (single isomer, unassigned) [Compound 8b, (3,4-dichlorophenyl)-[1,1-dioxo-2-(2-thienyl)-1,4-thiazinan-4-yl]methanone] was run?
Its EC50 is 100 to 500 nM.

Cc1cc(C(=O)N2CCS(=O)(=O)C(c3cccs3)C2)ccc1Cl (single isomer, unassigned) [Compound 9a, (4-chloro-3-methyl-phenyl)-[1,1-dioxo-2-(2-thienyl)-1,4-thiazinan-4-yl]methanone] was tested. Which EC50 did it give?
Its EC50 is 500 to 5000 nM.

Which EC50 does the source give for Cc1cc(C(=O)N2CCS(=O)(=O)C(c3cccs3)C2)ccc1Cl (single isomer, unassigned) [Compound 9b, (4-chloro-3-methyl-phenyl)-[1,1-dioxo-2-(2-thienyl)-1,4-thiazinan-4-yl]methanone] here?
Its EC50 is 100 to 500 nM.

For Cn1cnc(-c2ccc(C3CN(C(=O)c4ccc(Br)c(Cl)c4)CCS3(=O)=O)s2)c1 (single isomer, unassigned) [Compound 16a, (4-bromo-3-chloro-phenyl)-[2-[5-(1-methylimidazol-4-yl)-2-thienyl]-1,1-dioxo-1,4-thiazinan-4-yl]methanone], which EC50 is on record?
The EC50 was 100 to 500 nM.

Which EC50 does the source give for Cn1cnc(-c2ccc(C3CN(C(=O)c4ccc(Br)c(Cl)c4)CCS3(=O)=O)s2)c1 (single isomer, unassigned) [Compound 16b, (4-bromo-3-chloro-phenyl)-[2-[5-(1-methylimidazol-4-yl)-2-thienyl]-1,1-dioxo-1,4-thiazinan-4-yl]methanone] here?
The EC50 was 500 to 5000 nM.

With O=C(c1ccc(Br)c(Cl)c1)N1CCS(=O)(=O)C(c2cccs2)C1 (stereo not shown) [Compound 6b, (4-bromo-3-chloro-phenyl)-[1,1-dioxo-2-(2-thienyl)-1,4-thiazinan-4-yl]methanone] as the molecule, how does the EC50 read?
The EC50 was 100 to 500 nM.
